Laboratory results: the supplement of paper PMC11061612

Experiments:
Test in all cases: Bliss excess, mean over the matrix (fraction); higher = more synergy
[1] = system: A673 (Ewing's Sarcoma)
Outline: (§1)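 Cell lines in DMEM/F12 or RPMI with 10% FBS were plated in 1536-well plates, held 24 hours at 37°C, 5% CO2, then given two-drug dose matrices for 72 hours (DMSO typically 0.2%). Viability was read by CellTiter-Glo 2.0 luminescence and scaled as inhibition from 0 (vehicle wells) to 1 (blank wells). Combination Emax is the second-highest inhibition in the matrix; Bliss excess is observed combination effect minus expected EA + EB − EA·EB, EA and EB being single-agent effects.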

[2] = system: BE-13 (T-Lymphoblastic Leukemia)
Outline: as §1

[3] = system: CAL-72 (Osteosarcoma)
Outline: as §1

[4] = system: ESS-1 (Other Solid Carcinomas)
Outline: as §1

[5] = system: EW-11 (Ewing's Sarcoma)
Outline: as §1

[6] = system: GAMG (Glioblastoma)
Outline: as §1

[7] = system: HH (T-Cell Non-Hodgkin's Lymphoma)
Outline: as §1

[8] = system: HuCCT1 (Biliary Tract Carcinoma)
Outline: as §1

[9] = system: KS-1 (Glioblastoma)
Outline: as §1

[10] = system: KYAE-1 (Esophageal Adenocarcinoma)
Outline: as §1

[11] = system: LNZTA3WT4 (Low Grade Glioma)
Outline: as §1

[12] = system: LOXIMVI (Melanoma)
Outline: as §1

[13] = system: MPP-89 (Mesothelioma)
Outline: as §1

[14] = system: NCI-H524 (Small Cell Lung Carcinoma)
Outline: as §1

[15] = system: OVCAR-5 (Ovarian Carcinoma)
Outline: as §1

[16] = system: SAS (Oral Cavity Carcinoma)
Outline: as §1

[17] = system: SNU-16 (Gastric Carcinoma)
Outline: as §1

[18] = system: SNU-449 (Hepatocellular Carcinoma)
Outline: as §1

[19] = system: SW1710 (Bladder Carcinoma)
Outline: as §1

[20] = system: TGBC1TKB (Biliary Tract Carcinoma)
Outline: as §1

[21] = system: WSU-NHL (B-Cell Non-Hodgkin's Lymphoma)
Outline: as §1

[22] = system: YAPC (Pancreatic Carcinoma)
Outline: as §1

With `CN(CCO)CC[C@H](CSc1ccccc1)Nc1ccc(S(=O)(=O)NC(=O)c2ccc(N3CCC([C@@H](O)c4ccccc4-c4ccc(Cl)cc4)CC3)cc2)cc1S(=O)(=O)C(F)(F)F` [AZD4320] + Nc1ccn([C@@H]2O[C@H](CO)[C@@H](O)C2(F)F)c(=O)n1 [Gemcitabine] (first compound max 1 µM, 7x7, partner max 0.3 µM) as the molecule, how does the Bliss excess [1] read?
The Bliss excess was 0.0335.

And the Bliss excess [2]?
Its Bliss excess is -0.0285.

And the Bliss excess [3]?
Its Bliss excess is 0.129.

What about the Bliss excess [4] of the same molecule?
Its Bliss excess is 0.0278.

And the Bliss excess [5]?
Its Bliss excess is 0.0215.

And the Bliss excess [6]?
Its Bliss excess is 0.103.

What about the Bliss excess [7] of the same molecule?
Its Bliss excess is -0.0085.

And the Bliss excess [8]?
Its Bliss excess is -0.0245.

What about the Bliss excess [9] of the same molecule?
Its Bliss excess is -0.0337.

And the Bliss excess [10]?
Its Bliss excess is 0.0074.

What about the Bliss excess [11] of the same molecule?
Its Bliss excess is -0.0125.

What about the Bliss excess [12] of the same molecule?
The Bliss excess was 0.021.

What about the Bliss excess [13] of the same molecule?
The Bliss excess was 0.0268.

What about the Bliss excess [14] of the same molecule?
Its Bliss excess is -0.0216.

And the Bliss excess [15]?
Its Bliss excess is -0.0486.

And the Bliss excess [16]?
Its Bliss excess is 0.0374.

And the Bliss excess [17]?
The Bliss excess was 0.0538.

And the Bliss excess [18]?
Its Bliss excess is -0.0558.

And the Bliss excess [19]?
The Bliss excess was -0.0401.

What about the Bliss excess [20] of the same molecule?
Its Bliss excess is -0.0139.

What about the Bliss excess [21] of the same molecule?
Its Bliss excess is -0.0505.

What about the Bliss excess [22] of the same molecule?
Its Bliss excess is 0.011.
